Assay results from the supplement of paper PMC10307832.

Columns and labels:
Assay in all cases: relative viability (nuclei count vs DMSO), 5 days (fraction); higher = more cells survive
[1] = compound: COc1cccc2cc(-c3nc([C@H]4CC[C@H](C(=O)O)CC4)n4ncnc(N)c34)[nH]c12 [OSI-027] + Cc1nc(Nc2ncc(C(=O)Nc3c(C)cccc3Cl)s2)cc(N2CCN(CCO)CC2)n1 [Dasatinib] (partner 0.075 µM)
Outline: (§1)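 Five library-drug doses in √10 steps were combined with a fixed anchor-drug dose, or a single drug was given alone, by pin tool to lung cancer cell lines in 1536-well plates the day after seeding. Nuclei were stained and counted after 5 days. Relative viability is the nuclei count in treated wells over that in vehicle wells, taken as the median of duplicate plates.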

[2] = compound: COc1cccc2cc(-c3nc([C@H]4CC[C@H](C(=O)O)CC4)n4ncnc(N)c34)[nH]c12 [OSI-027] + Nc1ncn([C@H]2C[C@H](O)[C@@H](CO)O2)c(=O)n1 [Decitabine] (partner 2 µM)
Outline: as §1

[3] = compound: Cc1nc(NC(=O)N2CCC[C@H]2C(N)=O)sc1-c1ccnc(C(C)(C)C(F)(F)F)c1 [Alpelisib] + NC(=O)Nc1cc(-c2cccc(F)c2)sc1C(=O)N[C@H]1CCCNC1 [AZD7762] (partner 0.2 µM)
Outline: as §1

[4] = compound: CCCS(=O)(=O)Nc1ccc(F)c(C(=O)c2c[nH]c3ncc(-c4ccc(Cl)cc4)cc23)c1F [Vemurafenib] + O=C(CCCCCCC(=O)Nc1ccccc1)NO [Vorinostat] (partner 1 µM)
Outline: as §1

| Cell Line | relative viability ([1]; first compound 0.01 µM) | relative viability ([1]; first compound 0.03162 µM) | relative viability ([1]; first compound 0.1 µM) | relative viability ([1]; first compound 0.3162 µM) | relative viability ([1]; first compound 1 µM) | relative viability ([2]; first compound 0.01 µM) | relative viability ([2]; first compound 0.03162 µM) | relative viability ([2]; first compound 0.1 µM) | relative viability ([2]; first compound 0.3162 µM) | relative viability ([2]; first compound 1 µM) | relative viability ([3]; first compound 0.04 µM) | relative viability ([3]; first compound 0.1265 µM) | relative viability ([3]; first compound 0.4 µM) | relative viability ([3]; first compound 1.265 µM) | relative viability ([3]; first compound 4 µM) | relative viability ([4]; first compound 0.03162 µM) | relative viability ([4]; first compound 0.1 µM) | relative viability ([4]; first compound 0.3162 µM) | relative viability ([4]; first compound 1 µM) |
| --- | --- | --- | --- | --- | --- | --- | --- | --- | --- | --- | --- | --- | --- | --- | --- | --- | --- | --- | --- |
| HCC-78 | 0.329 | 0.356 | 0.3 | 0.266 | 0.325 | 0.77 | 0.749 | 0.616 | 0.547 | 0.457 | 0.726 | 0.515 | 0.293 | 0.362 | 0.377 | 0.425 | 0.351 | 0.79 | 0.4 |
| HCC-366 | 0.679 | 0.708 | 0.61 | 0.477 | 0.395 | 0.345 | 0.367 | 0.381 | 0.265 | 0.228 | 0.317 | 0.316 | 0.307 | 0.183 | 0.072 | 0.271 | 0.38 |  | 0.306 |
| HCC-827 | 0.298 | 0.295 | 0.326 | 0.226 | 0.222 | 0.304 | 0.291 | 0.3 | 0.329 | 0.277 | 0.253 | 0.212 | 0.209 | 0.199 | 0.168 | 0.796 |  | 0.663 | 0.816 |
| HOP-62 | 0.6 | 0.675 | 0.591 | 0.556 | 0.301 | 0.216 | 0.231 | 0.252 | 0.257 | 0.214 | 0.607 | 0.386 | 1.21 | 0.651 | 0.614 | 0.515 | 0.593 | 0.583 | 0.484 |
| LC-2-ad | 0.585 | 0.537 | 0.494 | 0.455 | 0.333 | 0.827 | 0.842 | 0.779 | 0.735 | 0.578 | 0.812 | 0.874 | 0.863 | 0.684 | 0.583 | 0.627 | 0.669 | 0.364 | 0.687 |
| LCLC-97TM1 | 0.91 | 0.907 | 0.849 | 0.746 | 0.573 | 0.256 | 0.23 | 0.195 | 0.174 | 0.22 | 0.165 | 0.305 | 0.34 | 0.289 | 0.166 |  | 0.74 | 0.777 | 0.42 |
| LCLC-103H | 0.48 | 0.497 | 0.434 | 0.439 | 0.27 | 0.748 | 0.732 | 0.707 | 0.598 | 0.783 | 0.72 | 0.872 | 0.631 | 0.61 | 0.591 | 0.728 | 0.791 | 0.657 | 0.721 |
| LK-2 | 0.343 | 0.266 | 0.24 | 0.203 | 0.225 | 0.207 | 0.251 | 0.231 | 0.234 | 0.142 | 0.402 | 0.253 | 0.442 | 0.209 | 0.123 | 0.261 | 0.271 | 0.3 | 0.247 |
| LOU-NH91 | 0.533 | 0.542 | 0.471 | 0.407 | 0.392 | 0.804 | 0.825 | 0.73 | 0.718 | 0.613 | 0.735 | 0.608 | 0.663 | 0.556 | 0.543 | 0.87 | 0.742 | 0.692 | 0.933 |
